Read-outs that look alike come from different tables or passages of the source.
Tests used:
[1] = logP determination by HPLC, reversed-phase column (C 18), EEC Directive 79/831 Annex V.A8
Description: (a) Mobile phases for the determination in the acidic range: 0.1% aqueous phosphoric acid, acetonitrile; linear gradient from 10% acetonitrile to 90% acetonitrile—the corresponding measurement results are labelled in Table 1 with ^a).
(b) Mobile phases for the determination in the neutral range: 0.01 molar aqueous phosphate buffer solution, acetonitrile; linear gradient from 10% acetonitrile to 90% acetonitrile—the corresponding measurement results are labelled in Table 1 with ^b).

[2] = tested on: crop plants, such as, for example, barley and wheat; test: Post-Emergence Test (Example B), tolerance by crop plants
Description: (§1) Solvent: 5 parts by weight of acetone
(§2) Emulsifier: 1 part by weight of alkylaryl polyglycol ether
(§3) After three weeks, the degree of damage to the plants is rated in % damage in comparison to the development of the untreated control.

[3] = tested on: weeds; test: Pre-Emergence Test (Example A), activity against weeds; type: in vivo; conditions: soil sprayed about 24 hours after sowing, rated after three weeks
Description: as §1, §2
(§4) Seeds of the test plants are sown in normal soil.
0%=no effect (like untreated control)

[4] = tested on: weeds; test: Post-Emergence Test (Example B), activity against weeds; type: in vivo; conditions: test plants of a height of 5-15 cm sprayed, rated after three weeks
Description: as §1, §2, §3

[5] = tested on: crop plants, such as, for example, barley, wheat, rapeseed, soya and sugar beet; test: Pre-Emergence Test (Example A), tolerance by crop plants; type: in vivo
Description: as §1, §2, §4

[6] = a) acidic range: 0.1% aqueous phosphoric acid, acetonitrile gradient, HPLC C 18, 43° C.
[7] = pre-emergence, barley, wheat, rapeseed, soya and sugar beet, rated after three weeks
[8] = post-emergence, barley and wheat, rated after three weeks

SMILES	logP a) [1]	tolerance by crop plants ([2]; in vivo)	activity against weeds (degree of damage) [3]	activity against weeds (degree of damage) [4]	tolerance by crop plants ([5]; in vivo)	logP a) [1, 6]	tolerance by crop plants [5, 7]	tolerance by crop plants [2, 8]
CCCCC(CC)C(=O)N(c1cc(-n2ncc(=O)n(C)c2=O)c(F)cc1C#N)S(=O)(=O)CC (racemic) [Example 7]	m.p.: 140 °C logP = 3.53^a)	essentially being tolerated well	very strong activity	very strong activity	essentially being tolerated well	–	–	–
CCC(Oc1ccccc1)C(=O)N(c1cc(-n2ncc(=O)n(C)c2=O)c(F)cc1C#N)S(=O)(=O)CC (racemic) [Example 33]	m.p.: 128 °C logP = 3.12^a)	essentially being tolerated well	very strong activity	very strong activity	essentially being tolerated well	–	–	–
CCS(=O)(=O)N(C(=O)C(C)c1c(Cl)cccc1Cl)c1cc(-n2ncc(=O)n(C)c2=O)c(F)cc1C#N (racemic) [Example 34]	–	–	–	–	–	m.p.: 159 °C logP = 3.07^a)	–	–
CCS(=O)(=O)N(C(=O)C1CCc2ccccc2O1)c1cc(-n2ncc(=O)n(C)c2=O)c(F)cc1C#N (racemic) [Example 38]	m.p.: 115 °C logP = 2.93^a)	–	–	–	–	–	–	–
CCS(=O)(=O)N(C(=O)C(C)Oc1ccccc1)c1cc(-n2ncc(=O)n(C)c2=O)c(F)cc1C#N (racemic) [Example 39]	m.p.: 132 °C logP = 2.85^a)	essentially being tolerated well	very strong activity	very strong activity	essentially being tolerated well	–	–	–
CCS(=O)(=O)N(C(=O)C(C)Cl)c1cc(-n2ncc(=O)n(C)c2=O)c(F)cc1C#N (racemic) [Example 61]	logP = 2.38^a)	essentially being tolerated well	very strong activity	very strong activity	essentially being tolerated well	–	–	–
CCS(=O)(=O)N(C(=O)CCl)c1cc(-n2ncc(=O)n(C)c2=O)c(F)cc1C#N [Example 4]	logP = 2.09^a)	essentially being tolerated well	very strong activity	very strong activity	essentially being tolerated well	–	–	–
CCS(=O)(=O)N(C(=O)c1ccccc1F)c1cc(-n2ncc(=O)n(C)c2=O)c(F)cc1C#N [Example 5]	m.p.: 176 °C logP = 2.52^a)	essentially being tolerated well	very strong activity	very strong activity	essentially being tolerated well	–	–	–
CCS(=O)(=O)N(C(=O)COc1ccc(Cl)cc1)c1cc(-n2ncc(=O)n(C)c2=O)c(F)cc1C#N [Example 6]	m.p.: 65 °C logP = 3.07^a)	essentially being tolerated well	very strong activity	very strong activity	essentially being tolerated well	–	–	–
CCS(=O)(=O)N(C(=O)C(C)(C)C)c1cc(-n2ncc(=O)n(C)c2=O)c(F)cc1C#N [Example 10]	logP = 2.71^a)	essentially being tolerated well	very strong activity	very strong activity	essentially being tolerated well	–	–	–
CCS(=O)(=O)N(C(=O)c1ccc(OC)cc1)c1cc(-n2ncc(=O)n(C)c2=O)c(F)cc1C#N [Example 11]	m.p.: 94 °C logP = 2.77^a)	–	very strong activity	–	–	–	essentially being tolerated well	–
CCS(=O)(=O)N(C(=O)C(C)C)c1cc(-n2ncc(=O)n(C)c2=O)c(F)cc1C#N [Example 13]	logP = 2.50^a)	essentially being tolerated well	very strong activity	very strong activity	essentially being tolerated well	–	–	–
CCS(=O)(=O)N(C(=O)c1ccco1)c1cc(-n2ncc(=O)n(C)c2=O)c(F)cc1C#N [Example 14]	m.p.: 90 °C logP = 2.31^a)	essentially being tolerated well	very strong activity	very strong activity	essentially being tolerated well	–	–	–
CCS(=O)(=O)N(C(=O)C1CCCCC1)c1cc(-n2ncc(=O)n(C)c2=O)c(F)cc1C#N [Example 16]	–	–	very strong activity	very strong activity	–	m.p.: 182 °C logP = 2.46^a)	essentially being tolerated well	essentially being tolerated well
C/C=C/C(=O)N(c1cc(-n2ncc(=O)n(C)c2=O)c(F)cc1C#N)S(=O)(=O)CC [Example 18]	–	–	very strong activity	very strong activity	–	m.p.: 153 °C logP = 2.16^a)	essentially being tolerated well	essentially being tolerated well
CCS(=O)(=O)N(C(=O)CC(C)(C)C)c1cc(-n2ncc(=O)n(C)c2=O)c(F)cc1C#N [Example 19]	logP = 2.94^a)	essentially being tolerated well	very strong activity	very strong activity	essentially being tolerated well	–	–	–
CCS(=O)(=O)N(C(=O)CC(C)C)c1cc(-n2ncc(=O)n(C)c2=O)c(F)cc1C#N [Example 20]	logP = 2.65^a)	essentially being tolerated well	very strong activity	very strong activity	essentially being tolerated well	–	–	–

SMILES	logP a) [1]	tolerance by crop plants ([2]; in vivo)	activity against weeds (degree of damage) [3]	activity against weeds (degree of damage) [4]	tolerance by crop plants ([5]; in vivo)	logP a) [1, 6]	tolerance by crop plants [5, 7]	tolerance by crop plants [2, 8]
CCS(=O)(=O)N(C(=O)CCCCCl)c1cc(-n2ncc(=O)n(C)c2=O)c(F)cc1C#N [Example 22]	logP = 2.65^a)	essentially being tolerated well	very strong activity	very strong activity	essentially being tolerated well	–	–	–
CCS(=O)(=O)N(C(=O)c1nn(C)c(OC(F)F)c1C)c1cc(-n2ncc(=O)n(C)c2=O)c(F)cc1C#N [Example 23]	m.p.: 187 °C logP = 2.82^a)	essentially being tolerated well	very strong activity	very strong activity	essentially being tolerated well	–	–	–
C=CC(=O)N(c1cc(-n2ncc(=O)n(CCF)c2=O)c(F)cc1C#N)S(C)(=O)=O [Example 62]	–	–	–	–	–	m.p.: 142 °C logP = 1.93^a)	–	–
C/C=C/C(=O)N(c1cc(-n2ncc(=O)n(CCF)c2=O)c(F)cc1C#N)S(C)(=O)=O [Example 63]	–	–	–	–	–	m.p.: 85 °C logP = 2.12^a)	–	–
C=CC(=O)N(c1cc(-n2ncc(=O)n(CCF)c2=O)c(F)cc1C#N)S(=O)(=O)CCC [Example 64]	–	–	–	–	–	m.p.: 142 °C logP = 2.46^a)	–	–
C=CC(=O)N(c1cc(-n2ncc(=O)n(CCF)c2=O)c(F)cc1C#N)S(=O)(=O)CC [Example 65]	–	–	–	–	–	m.p.: 83 °C logP = 2.14^a)	–	–
CCS(=O)(=O)N(C(=O)c1cn(C)nc1C(F)(F)F)c1cc(-n2ncc(=O)n(C)c2=O)c(F)cc1C#N [Example 67]	m.p.: 199 °C logP = 2.54^a)	–	–	–	–	–	–	–
CCS(=O)(=O)N(C(=O)c1snnc1C)c1cc(-n2ncc(=O)n(C)c2=O)c(F)cc1C#N [Example 68]	m.p.: 189 °C logP = 1.73^a)	–	–	–	–	–	–	–
CCS(=O)(=O)N(C(=O)N1CCCC1)c1cc(-n2ncc(=O)n(C)c2=O)c(F)cc1C#N [Example 69]	m.p.: 192 °C logP = 2.05^a)	–	–	–	–	–	–	–
CCS(=O)(=O)N(C(=O)N(C(C)C)C(C)C)c1cc(-n2ncc(=O)n(C)c2=O)c(F)cc1C#N [Example 71]	m.p.: 188 °C logP = 2.92^a)	–	–	–	–	–	–	–
CCS(=O)(=O)N(C(=O)Oc1ccc(F)cc1)c1cc(-n2ncc(=O)n(C)c2=O)c(F)cc1C#N [Example 74]	m.p.: 202 °C logP = 2.85^a)	–	–	–	–	–	–	–
CCS(=O)(=O)N(C(=O)CCCc1ccc(OC)cc1)c1cc(-n2ncc(=O)n(C)c2=O)c(F)cc1C#N [Example 76]	logP = 3.03^a)	–	–	–	–	–	–	–
CCS(=O)(=O)N(C(=O)/C=C/c1ccc2c(c1)OCO2)c1cc(-n2ncc(=O)n(C)c2=O)c(F)cc1C#N [Example 77]	–	–	–	–	–	m.p.: 141 °C logP = 2.72^a)	–	–
CCS(=O)(=O)N(C(=O)CC(c1ccccc1)c1ccccc1)c1cc(-n2ncc(=O)n(C)c2=O)c(F)cc1C#N [Example 78]	m.p.: 183 °C logP = 3.48^a)	–	–	–	–	–	–	–
CCS(=O)(=O)N(C(=O)Cc1ccccc1OC)c1cc(-n2ncc(=O)n(C)c2=O)c(F)cc1C#N [Example 80]	m.p.: 140 °C logP = 2.70^a)	–	–	–	–	–	–	–
CCS(=O)(=O)N(C(=O)Cc1cc(OC)ccc1OC)c1cc(-n2ncc(=O)n(C)c2=O)c(F)cc1C#N [Example 81]	m.p.: 192 °C logP = 2.66^a)	–	–	–	–	–	–	–
CCS(=O)(=O)N(C(=O)Cc1cccc(OC)c1)c1cc(-n2ncc(=O)n(C)c2=O)c(F)cc1C#N [Example 82]	m.p.: 158 °C logP = 2.63^a)	–	–	–	–	–	–	–
